From patent US9445606B2, “Use of 4-hydroxydihydrochalcones and their salts for enhancing an impression of sweetness” (SYMRISE AG, priority 2006, dated 2016)

What was measured:
[1] = in particular in clear aqueous applications; cited from earlier work
[2] = Enhancing the impression of sweetness of a solution containing a sweet-tasting substance (expert panel rating), glycerine; format: in vivo; settings: 30 ppm substance, 5%
Experimental: (§1) In order to quantify the enhancement of an impression of sweetness by adding 4-hydroxydihydrochalcones to be used according to the invention, the sweetness of a solution containing a sweet-tasting substance and of samples containing the same amount of sweet-tasting substance and in addition a certain concentration of the 4-hydroxydihydrochalcones of the formula (I) to be used according to the invention was determined by a group of experts (classification 0 [extremely weaklysweet] to 10 [extremely sweet]). Evaluation was performed by calculating the enhancement (in %) of the impression of sweetness from the average values of the ratings for the solution containing the sweet-tasting substance (a) and for the solution containing the sweet-tasting substance and 4-dydroxydihydrochalcones (b).

[3] = Enhancing the impression of sweetness of a solution containing a sweet-tasting substance (expert panel rating), sucrose; format: in vivo; settings: 30 ppm substance, 5%
Experimental: as §1

[4] = Impression of sweetness of a sugar-reduced test solution (5% sucrose + compound against 6% sucrose); format: in vivo
Text: In order to quantify the retention of an impression of sweetness when replacing a proportion of sucrose with a small amount of 4-hydroxydihydrochalcones of the formula (I) being used in accordance with the invention, the sweetness (a) of a solution containing 6 wt. % of sucrose as compared with a solution containing 5 wt. % of sucrose and (b) or (c) of a solution containing 6 wt. % of sucrose as compared with a solution containing 5% of sucrose and a certain concentration of a 4-hydroxydihydrochalcone being used according to the invention was determined by a group of experts (classification 0 [not sweet] to 10 [extremely sweet]). Evaluation was performed by calculating the enhancement (in %) of the impression of sweetness from the average values of the estimates for the solutions of 6% sucrose (second column) and for the solutions containing 5% sucrose and optionally the 4-hydroxydihydrochalcone of the formula (I) being used according to the invention (third column).

COc1ccc(C2CC(=O)c3c(O)cc(O)cc3O2)cc1O (stereo not shown) [hesperetin]
solubility [1]: low solubility

O=C(CCc1ccc(O)cc1)c1c(O)cc(O)cc1O [compound 4, 3-(4-hydroxyphenyl)-1-(2,4,6-trihydroxyphenyl)propan-1-one]
total number of tasters / number of tasters who felt that test solution (b) was sweeter than test solution (a) [2]: 16/11 | % enhancement of the impression of sweetness ([2]; (b) with against (a) without): +45% | Impression of sweetness (1-10) b) with ([2]; mean ± standard deviation): 4.4 ± 2.1 | total number of tasters / number of tasters who felt that test solution (b) was sweeter than test solution (a) [3]: 16/14 | % enhancement of the impression of sweetness ([3]; (b) with against (a) without): +31% | Impression of sweetness (1-10) b) with ([3]; mean ± standard deviation): 7.4 ± 1.4 | total number of tasters / number of tasters who felt the 5 wt. % sucrose test solution with substance sweeter than 6 wt. % sucrose ([4]; 5% sucrose + 30 ppm substance): 16/7 | % enhancement of the impression of sweetness ([4]; 5% sucrose + 30 ppm substance against 6% sucrose): −4.9% | Impression of sweetness (1-10) ([4]; 5% sucrose + 30 ppm substance, mean ± standard deviation): 6.1 ± 1.4
